Data as given in patent US6544561B2 (The Lachlan Family Pty Ltd., priority 1997, dated 2003).

Key:
[1] = system: outbred (Swiss) female mice; settings: drinking water with Mg2+ 120 mg per liter from weaning, fed on alternate days
Method: A short-lived mammalian species was chosen. […] Two hundred outbred (Swiss) female mice were divided randomly at weaning into two groups of 100 mice and were maintained under identical management and environmental conditions.
The second group of mice was supplied with drinking water that contained magnesium sulphate (Epsom salts) 1 gram per liter with a pH value between pH 6.5 and pH 7.0. This drinking water contained approximately Mg^2+ 120mg per liter. Bicarbonate anions were absent.
Both groups of mice were fed commercial laboratory food that contained 1 gram of magnesium per kilogram of food. Both groups of mice were fed on alternate days with no food available on the other days. Group-specific drinking water (as described above) was available at all times.

[2] = system: post menopausal women with osteoarthritis in the joints of their hands; settings: in vivo
Text: For an experimental trial, a group of post menopausal women were chosen who had clinical signs of osteoarthritis in the joints of their hands. The osteoarthritic joints included the distal and proximal interphalangeal joints of the fingers and the carpometacarpal joint of the thumbs. In all cases, loss of joint function was moderate to severe.
In all cases, the women suffered pain, swelling of the fingers and loss of joint movement. […] Women with affected thumbs had considerable loss of function and considerable pain. […] The women consumed between 2 to 3 liters of bicarbonate solution per day. […] Consumption was commenced at half a liter per day and increased by increments over a period of one month to 2 to 3 liters per day. Consumption occurred on an empty stomach to avoid the loss of bicarbonate by stomach acid. Consumption occurred in small amounts (300 mL) at set times each day to avoid rapid increases in bicarbonate concentrations of body fluids.

[3] = with lowered body weight; text refers to the trial of Example 5
Method: A trial involving people consuming bicarbonate anions in water was conducted. These people were middle aged and overweight and complained of tiredness and lethargy. No control group was maintained for the duration of the trial (people in an initial control group were unable to consume the volumes of soft water required). […] They were requested to decrease their food (calorie) intake considerably and to avoid dietary fats.
Bicarbonate concentration was established at a maximum of one gram per liter.
Each participant in the trial was advised to consume the bicarbonate solution ‘on an empty stomach’. […] Advice was given also to consume the solution in small amounts at set times each day. Consumption in this manner avoided a rapid increase in the bicarbonate concentrations of body fluids.

Molecule	Fifty Percent Survival [1]	Maximum Life Span [1]	Pain and swelling associated with osteoarthritis [2]	Blood pressure [3]
O=S(=O)([O-])[O-].[Mg+2] [magnesium sulphate, reference compound]	736 days	1040 days		
magnesium bicarbonate	790 days	1152 days	alleviated the pain and swelling associated with osteoarthritis	reduction in high blood pressure to a normal value
